Reference: PubChem BioAssay AID504741 (National Center for Advancing Translational Sciences (NCATS), 2011)

Test system: PBS pH 7.4 stability, 37 C, LC-MS/MS, 48 h
Experiment: Inhibitors of Bloom's syndrome helicase: PBS Stability Profiling Assay
Settings: at 2 µM; hits give high values
Excerpt: Survival of cells and the faithful propagation of the genome depend on elaborate mechanisms of detecting and repairing DNA damage. Treatment of advanced cancer relies on radiation therapy or chemotherapy, which kill cancer cells by causing extensive DNA damage. It is often found, that cancer cells develop resistance to therapy through enhanced activity of DNA repair functions; this has led to an increased interest in developing drugs that interfere with DNA repair, which could sensitize cancer cells to conventional therapy. Bloom syndrome helicase (BLM), is important in resolving abnormal DNA structures formed during replication or homologous recombination. Shutting down the expression of BLM leads to chromosomal instability and higher radiation sensitivity in cultured cells. After the completion of a qHTS campaign, secondary assays, and rounds of medicinal chemistry, a compound was identified to be further characterized through in vitro ADME assays. […]
2uM of compound is incubated in PBS buffer at pH 7; the reference compound is procaine. Compounds are incubated at 37 deg C for the pre-determined time periods and the when aliquots are removed. Samples are analyzed with LC-MS/MS.

## O=C(Nc1ccc(F)c(C(F)(F)F)c1)Nc1nnc(-c2ccncc2)s1
  percent remaining: 100%
